The source of these data is patent US20260234112A1, “COMPOUNDS, COMPOSITIONS, AND METHODS OF USE THEREOF” (Type6 Therapeutics, Inc., priority 2023, published 2026).

This assay addresses T1, Cdk2(2-298) (Homo sapiens, UniProt P24941).
T1 construct: Biotinylated N-terminal avi-tagged Cdk2(2-298) or Cdk1(1-297) was immobilized
The assay can be described thus: Surface Plasmon Resonance (SPR) compound interaction, Biacore 8K. The class given is binding. To be noted: single-cycle kinetics (SCK, "S"), dissociation 1800 sec, read-out: Activity rating (KD). A digest of the protocol: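 Biotinylated N-terminal avi-tagged Cdk2(2-298) captured on streptavidin chip at 2500–3000 RU in 25 mM HEPES, 150 mM NaCl, 0.05% Tween20, pH 7.5, 1% DMSO final. Eight 3-fold compound concentrations injected 120 sec at 30 μl/min, multi- or single-cycle kinetics; dissociation 180 sec (MCK) or 1800 sec (SCK).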
(SPR reads the build-up and loss of mass on a sensor chip optically.)
One may read the Kd as the free concentration of one partner at which half of the binding sites on the other are occupied at equilibrium, for simple one-to-one binding. `Cc1cc2cc(S(=O)(=O)Nc3ccc(Oc4ccncc4-c4ccnc(N[C@H]5CC[C@H](N)CC5)n4)c(F)c3)ccc2[nH]1` [Compound 45, N-[4-[[3-[2-[(1r,4r)(4-aminocyclohexyl)amino]pyrimidin-4-yl]-4-pyridyl]oxy]-3-fluorophenyl] 2-methyl-1H-indole-5-sulfonamide]: the Kd was greater than 5 µM.
Next, `N[C@H]1CC[C@H](Nc2nccc(-c3cnccc3Oc3ccc(NS(=O)(=O)C4CCC4)cc3F)n2)CC1` [Compound 39, N-[4-[[3-[2-[(1r,4r)(4-Aminocyclohexyl)amino]pyrimidin-4-yl]-4-pyridyl]oxy]-3-fluorophenyl]cyclobutanesulfonamide]: 1 to 5 µM.
Next, `N[C@H]1CC[C@H](Nc2nccc(-c3cnccc3Oc3ccc(NS(=O)(=O)c4ccccc4)c(F)c3)n2)CC1` [Compound 46, N-[4-[[3-[2-[(1r,4r)(4-Aminocyclohexyl)amino]pyrimidin-4-yl]-4-pyridyl]oxy]-2-fluorophenyl] benzenesulfonamide]: 0.1 to 1 µM; `N#Cc1ccc(S(=O)(=O)Nc2ccc(Oc3ccncc3-c3ccnc(N[C@H]4CC[C@H](N)CC4)n3)c(F)c2)cc1` [Compound 30, N-(4-((3-(2-((1r,4r)-4-aminocyclohexyl)amino)pyrimidin-4-yl)pyridin-4-yloxy)-3-fluorophenyl) 4-cyanobenzenesulfonamide]: 0.1 to 1 µM; `O=S(=O)(Nc1ccc(Oc2ccncc2-c2ccnc(NC3CN(C4COC4)C3)n2)c(F)c1)c1ccccc1Cl` [Compound 101]: 0.011 to 0.1 µM.
Regarding `N[C@H]1CC[C@H](Nc2nccc(-c3ccc(C4CC4)cc3Oc3ccc(NS(=O)(=O)c4ccccc4Cl)cc3F)n2)CC1` [Compound 19, N-[4-[2-[2-[(1r,4r)(4-Aminocyclohexyl)amino]pyrimidin-4-yl]-5-cyclopropylphenoxy]-3-fluorophenyl] 2-chlorobenzenesulfonamide], the Kd lay within 0.011 to 0.1 µM.
Next, `O=S(=O)(Nc1ccc(Oc2ccncc2-c2ccnc(NC3CNC3)n2)c(F)c1)c1ccccc1Cl` [Compound 98]: 0.011 to 0.1 µM; `C#Cc1ccccc1S(=O)(=O)Nc1ccc(Oc2ccncc2-c2ccnc(N[C@H]3CC[C@H](N)CC3)n2)c(F)c1` [Compound 73, N-[4-[[3-[2-(1r,4r)[(4-Aminocyclohexyl)amino]pyrimidin-4-yl]-4-pyridyl]oxy]-3-fluorophenyl] 2-ethynylbenzenesulfonamide]: 0.011 to 0.1 µM.
Next, `N[C@H]1CC[C@H](Nc2nccc(-c3cnccc3Oc3ccc(NS(=O)(=O)Cc4ccccc4)c(Cl)c3)n2)CC1` [Compound 51, N-[4-[[3-[2-[(1r,4r)(4-Aminocyclohexyl)amino]pyrimidin-4-yl]-4-pyridyl]oxy]-2-chlorophenyl] phenylmethanesulfonamide]: 1 to 5 µM; `N[C@H]1CC[C@H](Nc2nccc(-c3ccncc3Oc3ccc(NS(=O)(=O)c4ccccc4Cl)cc3F)n2)CC1` [Compound 131, N-[4-(1r,4r)[[4-[2-[(4-aminocyclohexyl)amino]pyrimidin-4-yl]-3-pyridyl]oxy]-3-fluorophenyl] 2-chlorobenzenesulfonamide]: 0.011 to 0.1 µM; `N[C@H]1CC[C@H](Nc2nccc(-c3cnccc3Sc3ccc(NS(=O)(=O)c4cccc5ccccc45)cc3F)n2)CC1` [Compound 118, N-[4-(1r,4r)[[3-[2-[(4-Aminocyclohexyl)amino]pyrimidin-4-yl]-4-pyridyl]sulfanyl]-3-fluorophenyl]naphthalene-1-sulfonamide]: 0.1 to 1 µM.
For `N[C@H]1CC[C@H](Nc2nccc(-c3ccc(-c4ccccc4)cc3Oc3ccc(NS(=O)(=O)c4ccccc4Cl)cc3F)n2)CC1` [Compound 18, N-[4-[2-[2-[(1r,4r)(4-Aminocyclohexyl)amino]pyrimidin-4-yl]-5-phenylphenoxy]-3-fluorophenyl] 2-chlorobenzenesulfonamide] the value was greater than 5 µM; for `N[C@H]1CC[C@H](Nc2nccc(-c3cnccc3Oc3cc(Cl)c(NS(=O)(=O)c4ccccc4)c(Cl)c3)n2)CC1` [Compound 63, N-[4-[[3-[2-[(1r,4r)(4-Aminocyclohexyl)amino]pyrimidin-4-yl]-4-pyridyl]oxy]-2,6-dichlorophenyl] benzenesulfonamide], 1 to 5 µM; for `O=S(=O)(Nc1ccc(Oc2ccncc2-c2ccnc(NCCN3CCC3)n2)c(F)c1)c1ccccc1Cl` [Compound 94], 0.1 to 1 µM.
For `N[C@H]1CC[C@H](Nc2nccc(-c3cnccc3Oc3ccc(NS(=O)(=O)C45CC6CC(CC(C6)C4)C5)cc3F)n2)CC1` [Compound 74, N-[4-[[3-[2-(1r,4r)[(4-Aminocyclohexyl)amino]pyrimidin-4-yl]-4-pyridyl]oxy]-3-fluorophenyl] adamant-1-ylsulfonamide], the dissociation constant Kd is greater than 5 µM.
For `COc1ccc(S(=O)(=O)Nc2ccc(Oc3ccncc3-c3ccnc(N[C@H]4CC[C@H](N)CC4)n3)c(F)c2)c(C)c1C` [Compound 43, N-[4-[[3-[2-[(1r,4r)(4-aminocyclohexyl)amino]pyrimidin-4-yl]-4-pyridyl]oxy]-3-fluorophenyl] 4-methoxy-2,3-dimethyl-benzenesulfonamide] the value was 0.011 to 0.1 µM; for `N[C@H]1CC[C@H](Nc2nccc(-c3cnccc3Oc3ccc(NS(=O)(=O)c4cccc5nccnc45)cc3F)n2)CC1` [Compound 56, N-[4-[[3-[2-[(1r,4r)(4-Aminocyclohexyl)amino]pyrimidin-4-yl]-4-pyridyl]oxy]-3-fluorophenyl] quinoxalin-5-ylsulfonamide], 0.1 to 1 µM.
For `O=S(=O)(Nc1ccc(Oc2ccncc2-c2ccnc(NCCNCCO)n2)c(F)c1)c1ccccc1Cl` [Compound 97] the value was 0.1 to 1 µM.
For the compound `N[C@H]1CC[C@H](Nc2nccc(-c3cnccc3Oc3ccc(NS(=O)(=O)C4CC4)c(Cl)c3)n2)CC1` [Compound 50, N-[4-[[3-[2-[(1r,4r)(4-Aminocyclohexyl)amino]pyrimidin-4-yl]-4-pyridyl]oxy]-2-chlorophenyl] cyclopropanesulfonamide], the dissociation constant (Kd) is greater than 5 µM.
